The values that follow come from article PMC11357992, “Non-invasive mapping of systemic neutrophil dynamics upon cardiovascular injury” (Nature Cardiovascular Research, 2023).

Values joined by “and” are separate entries in the source; they are usually repeats but may differ in a detail not shown here. Identical values can stand only once. Where no end group is shown, it is not given here. Side-chain parts run from the residue outwards. rhodamine‑labelled PEGylated perfluoro‑15‑crown‑5 ether nanoemulsion = not defined here; carboxyfluorescein = N-terminal fluorescence label (CF)

The subject of data set [1] is CD177+ and CD177- neutrophils. Kind of data set: hNPPFC uptake by CD177+ and CD177- neutrophil subpopulations, flow cytometry. Format: cell-based, human. The settings on record: latter = CD177+. The method, then: Fig. 5 Specific targeting of human neutrophils by ^hNPPFCs. a, Uptake of ^hNPPFCs (red) or ^ConPFCs (gray) by human lymphocytes, monocytes or neutrophils over time as determined by flow cytometry. **P < 0.01. b, For MRI analysis, human immune cells were incubated with ^hNPPFCs (top row) or ^ConPFCs (bottom row). After several washing steps, cells were purified by density gradient centrifugation and analyzed by MRI. First column, ^1H MR image of the centrifugation tube with the cell layer (arrow) on top of the dark Percoll layer; second column, ^19F MR image of the same area; third column, merge of both datasets. Quantification of the ^19F data is shown on the right. c, hNP was conjugated to the pH-sensitive dye pHrodo, incubated with neutrophils at 4 °C (blue) and 37 °C (red) and analyzed by flow cytometry. d, Confocal microscopy of neutrophils incubated with ^hNPPFCs (top) or ^ConPFCs (bottom). Fluorescence signals of PFCs (rhodamine; Rho) as well as ligands (carboxyfluorescein; CF) were recorded, and nuclei were counterstained with 4′,6-diamidino-2-phenylindole (DAPI) (blue). […] At distinct time points, uptake of ^hNPPFCs was determined by flow cytometry. f, Human blood immune cells were incubated with ^hNPPFCs followed by staining for CD177 and flow cytometry. […]

The nature of data set [2]: 19F content of PFCs by 19F MRI. It counts as physicochemical. The settings on record: panel B raw data, single replicates #1-#3. As for the experimental part:
Extended Data Fig. 8 Physicochemical properties and cellular uptake of ^hNPPFCs. a, Cellular uptake of ^hNPPFCs by human monocyte subsets and neutrophils: Human immune cells isolated from the blood of healthy volunteers were incubated with ^hNPPFCs. Subsequently, cells were stained with CD11b, CD14 and CD16 to differentiate between neutrophils (red), classical monocytes (gray) and non-classical monocytes (blue) and the cells were analyzed by flow cytometry. The cellular uptake of ^hNPPFCs was determined under unstimulated conditions (top) and after treatment with 1 µg/ml LPS (bottom). b, Physicochemical properties of the generated nanotracers: Characterization of size, size distribution and ζ potential of ^MalPFCs and targeting PFCs (^hNPPFCs, ^ConPFCs) by dynamic light scattering (DLS). The rhodamine fluorescence signal of the PCS was determined by IVIS imaging and the ^19F content by ^19F MRI. c-e, Cryo transmission electron microscopy of the generated nanotracers: c, Cryo transmission electron microscopy (cryo-TEM) of ^hNPPFCs and ^ConPFCs. Graphs: The diameter of the PFCs was determined manually from three images categorized into 25 nm groups. […] The number of PFCs and liposomes was manually determined (n = 4/5 images). […]

In the next data set the test system is bone marrow neutrophils. Kind of data set: In situ labeling of bone marrow neutrophils and tracking after MI, 1H/19F MRI of bone marrow. As to conditions: Depletion of neutrophils by Ly6G Ab injection 48 and 24 h prior to mNPPFC injection; 24 h after injection; individual experiments. It counts as in vivo, mouse.
The next data set relates to murine neutrophils. The data set can be described thus: Migration of murine neutrophils into Matrigel/LPS plug after mNPPFC injection. Format: in vivo, mouse. As to conditions: in the presence of the targeting PFCs. The method, then:
[…] per kg BW ^mNPPFCs or saline were injected i.v., and, after 1 h, LPS-doped Matrigel was implanted s.c. into the neck of mice. After 2 h, the Matrigel plug was excised, and infiltrated neutrophils were isolated and stained with anti-CD11b and anti-Ly6G antibodies for flow cytometry.
A total of 1 × 10^6 isolated human neutrophils were incubated with or without 50 µl ^hNPPFCs for 1 h at 37 °C in 1 ml DMEM. After washing with DMEM, 1 × 10^5 of these cells were placed in a Boyden chamber containing 200 µl DMEM. The lower part of the chamber contained 100 ng ml^−1 IL-8 in 1 ml DMEM. After 1 h in an incubator, the flow through was collected, and the number of neutrophils was counted by flow cytometry. Murine neutrophils were isolated from Matrigel–LPS plugs and stained for Ly6G. Afterward, cells were washed twice, and the number of neutrophils was determined by flow cytometry.
Extended Data Fig. 9 Impact of ^mNPPFCs on murine neutrophils. a, Differentially expressed genes (DEGs) identified by bulk RNA sequencing of murine blood neutrophils after intravenous injection of ^mNPPFCs, ^ConPFCs or NaCl (Ctrl) as control. […] In total 25655 RNA transcripts were analyzed. b, Cell surface expression of CD11b, CD62L, CD63 on blood derived murine neutrophils after intravenous application of NaCl (Ctrl) or ^mNPPFCs. […]

As to “hNPPFCs: PEGylated rhodamine-labeled perfluorocarbon nanoemulsion coupled with human neutrophil-specific peptide hNP (carboxyfluorescein-DLVTSKLQVGGGC; also: C-terminal Cys coupled via maleimide-PEG2000-DSPE to rhodamine-labelled perfluorocarbon nanoemulsion)”, the “labeling of CD177− versus CD177+ neutrophils” value in data set [1] is “only the latter population could be labeled”. The 19F amount in data set [2] was 6.421 and 6.014 and 6.958.

As for “mNPPFCs: PEGylated rhodamine-labeled perfluoro-15-crown-5 ether nanoemulsion (maleimide PFCs) coupled with murine neutrophil-specific peptide mNP (carboxyfluorescein-DFYKPMPNLRITGGGC([maleimide‑PEG2000‑DSPE-rhodamine‑labelled PEGylated perfluoro‑15‑crown‑5 ether nanoemulsion]); reading uncertain; also: printed as DFYKPMPNLRIT-GGG-C)”, the “19F signal within the femur and tibia (bone marrow)” value with bone marrow neutrophils was 519273 and 821555 and 523902 and 983614 and 347032. Also, the “migration of murine neutrophils” value in the data set with murine neutrophils is reported as “unaltered”.
